Reference: paper PMC10403511, “DNA-encoded chemical libraries yield non-covalent and non-peptidic SARS-CoV-2 main protease inhibitors” (Communications Chemistry, 2023)
“Also recorded” adds a separate entry of the source. Read-outs that look alike come from different tables or passages of the source.

How the values were obtained:
SARS-CoV-2 M^pro = biological target: T1, SARS-CoV-2 M^pro (Severe acute respiratory syndrome coronavirus 2, UniProt P0DTD1); assay: M^pro enzyme inhibition assay, proteolytic cleavage of fluorescent peptide reporter, Ki by Morrison equation; type: biochemical; details: for decrease of activity compared to CDD-1733: from Ki values
T1 construct: the gene for M^pro (ORF1ab residues 3264 to 3569, GenBank code: MN908947.3); Sumo fusion with M^pro cleavage site (SAVLQ↓SGFRK) (N, cleaved yes); 6xHis-tag behind PreScission site (SGVTFQ↓GP) (C); made in house; host or cells: E. coli BL21(DE3)
Description: Hydrolysis of the fluorescent peptide was monitored at an emission wavelength of 460 nm with an excitation wavelength of 360 nm using a TECAN M200 plate reader. Initial hydrolysis rates of fluorescent peptide were plotted as a function of compound concentrations, and Ki values were obtained by fitting the data into the Morrison equation[32] with SE from triplicates.
inhibitors. […] The remaining activities (red dots) of Mpro towards fluorescent
peptide we re plotted as a function of compound concentrations and Ki values wa s calculated by fitting the da ta int o Morrison equation wit h standard error f romS6 […]

in vitro = details: human
HepG2 cells [1] = tested on: HepG2 cells
[2] = type: in vitro ADME, mouse; details: mouse, plasma, 2 h, 10 μM
Procedure: (§1) At time points of 0, 30, 60, and 120 min, 15 μL of the samples were taken out, and the reactions were terminated by adding 75 μL of ice-cold methanol. The reaction mixtures were then vortexed for 30 s and centrifuged at 15,000 rcf for 15 min. […] The percentage of test compound remaining at the individual time points was normalized by the 0-min.
(§2) 10 µM in duplicate (n=2) at 37 °C. The reactions were terminated at time points of 0, 30, 60 and 120 min by adding ice-cold methanol. Following centrifugation, the supernatant was analyzed using UHPLC-Q E xa ct ive Orbitrap MS. The percentage of test compound remaining at the individual time points relative to the 0 min sample was determined S12

HepG2 cells [3] = assay: cells; details: Homo sapiens, HepG2, 24 h, read-out: IC50 (HepG2 cell viability)
[4] = type: in vitro ADME, human; details: human, plasma, 2 h, 10 μM
Procedure: as §1, §2

thrombin = biological target: T2, thrombin (Homo sapiens, UniProt P00734); assay: Human protease off-target assay, commercial kit; type: biochemical; details: 10 µM compound
T2 construct: purchased Sigma-Aldrich MAK243
Procedure: (§3) These assays were done exactly as we described earlier. In brief, commercial kits were used for all four human proteases as follows: Cathepsin B (BPS Bioscience, #79590), Renin (BPS Bioscience, #80211), Thrombin (Sigma-Aldrich, #MAK243), and MMP-1 (Biovision, #K794-100). All assays were run in kinetic mode and at RT, except MMP-1, which was run at 37 °C. Positive controls were used for all assays, i.e., E64 for Cathepsin B, Aliskiren for Renin, CDD-1472 for Thrombin, and GM 6001 for MMP-1. Activities were obtained from linear initial progress curves, and fractional activities were calculated from reactions with no inhibitors[17],[19],[34].
(§4) Supplementary Figure 4. Potential off-target inhibition of major proteases, i.e. thrombin (a serine protease), cathepsin B (a cysteine protease like Mpro), renin (an
(§5) control inhibitors as indicated. S9 […]

cathepsin B = biological target: T3, cathepsin B (Homo sapiens, UniProt P07858); assay: Human protease off-target assay, commercial kit; type: biochemical; details: 10 µM compound
T3 construct: purchased BPS Bioscience 79590
Procedure: as §3, §4, §5

renin = biological target: T4, renin (Homo sapiens, UniProt P00797); assay: Human protease off-target assay, commercial kit; type: biochemical; details: 11.1 µM compound
T4 construct: purchased BPS Bioscience 80211
T4 sequence (P00797 67-406): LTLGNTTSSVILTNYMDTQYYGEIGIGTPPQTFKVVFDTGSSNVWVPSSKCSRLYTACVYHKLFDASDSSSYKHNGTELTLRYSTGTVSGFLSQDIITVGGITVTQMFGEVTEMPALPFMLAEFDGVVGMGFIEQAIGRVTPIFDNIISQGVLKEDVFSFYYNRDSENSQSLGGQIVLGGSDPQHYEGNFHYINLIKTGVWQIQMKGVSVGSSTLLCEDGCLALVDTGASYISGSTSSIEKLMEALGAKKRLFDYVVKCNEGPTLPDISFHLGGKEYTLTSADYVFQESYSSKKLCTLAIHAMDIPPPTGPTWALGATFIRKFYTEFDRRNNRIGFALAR
Procedure: as §3, §4, §5

[5] = biological target: T5, matrix metallopeptidase-1 (MMP-1) (Homo sapiens, UniProt P03956); assay: Human protease off-target assay, commercial kit; type: biochemical; details: 10 µM compound, 37 °C
T5 construct: purchased Biovision K794-100
T5 sequence (P03956 100-469): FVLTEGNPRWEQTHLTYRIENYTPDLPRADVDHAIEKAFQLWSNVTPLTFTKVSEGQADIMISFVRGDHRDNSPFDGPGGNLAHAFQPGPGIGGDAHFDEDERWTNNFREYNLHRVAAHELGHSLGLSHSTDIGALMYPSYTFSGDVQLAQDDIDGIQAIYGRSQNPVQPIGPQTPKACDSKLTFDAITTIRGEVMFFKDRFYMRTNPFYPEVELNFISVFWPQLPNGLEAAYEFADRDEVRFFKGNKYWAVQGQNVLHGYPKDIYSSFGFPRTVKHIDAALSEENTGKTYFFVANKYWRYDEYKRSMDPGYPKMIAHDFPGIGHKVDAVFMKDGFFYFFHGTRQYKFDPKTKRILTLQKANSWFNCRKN
Procedure: as §3, §4, §5

in vivo = details: 50 mg/kg; for half-life: plasma
Procedure: The whole blood samples were centrifuged at rcf 2000 for 5 min for the plasma separation of plasma. The plasma samples were stored at −80 °C before analysis. All the samples were analyzed with a Q Exactive orbitrap MS coupled with UHPLC (Thermo Fisher Scientific, San Jose, CA). LC-Q Exactive MS was operated in the same parameters used in the cell uptake assay above. The concentration of these compounds in plasma was quantified using individual calibration curves.
PK parameters such as half-time (T1/2), area under the plasma concentration–time curve during the period of observation (AUC0–t), area under the plasma concentration–time curve from zero to infinity (AUC0–∞), clearance normalized by the bioavailability (CL/F), and the mean residence time (MRT) were calculated by WinNonlin software (Certara, Princeton, NJ) by noncompartmental analysis. The plasma concentration–time curves were plotted in Prism 7 (GraphPad, San Diego, CA) as mean ± S.D.
Mouse PK of CDD compounds, 50 mg/kg
samples we re collected at 0, 5, 10, 15, 30 m in , 1, 2, 4, 6 and 8 h af ter dosing. P la sm a samples we re separated, prepared and analyzed wit h LC-MS. The compound
± SD (n=4). Tmax, time to rea ch the m a ximum pla sma concentration. Cm ax, maximum p las m a concentration. T1/2, half-lif e . AUC, area under the cu rve . CL, clea ran ce . F,
bioavailability. M R T, mean residence time.

[6] = 25 nM Mpro with authentic termini (no His-tag), standard error from triplicates, Inactive: less than 50% inhibition with 25 µM compound
[7] = 25 nM Mpro-6-His, standard error from triplicates, Inactive: less than 50% inhibition with 25 µM compound in initial screening
[8] = Fig. 2, Suppl. Fig. 1, construct not given, Inactive: inhibited M^pro activity by less than 90% with 25 μM
[9] = 25 nM Mpro with authentic termini (no His-tag), standard error from triplicates, Inactive: less than 50% inhibition with 25 µM compound, read-out: Mpro Ki
[10] = Fig. 2, Suppl. Fig. 1, construct not given, Inactive: inhibited M^pro activity by less than 90% with 25 μM, read-out: Ki

## CNC(=O)CCCn1c(-c2cncc3ccccc23)nc2cccc(C(=O)NCc3ccc4ccccc4c3)c21 [CDD-1925]
SARS-CoV-2 M^pro; read-out: Ki
  Ki: 51 nM
SARS-CoV-2 M^pro; read-out: Mpro Ki
  Ki: 42 ± 5 nM

## CNC(=O)CCCn1c(-c2cncc3ccccc23)nc2cccc(C(=O)N[C@@H](C)c3ccc4ccccc4c3)c21 [CDD-1845]
In vitro
  viability at 24 h, 100 µM: > 80%
HepG2 cells [1]
  cytotoxicity: no obvious cytotoxicity
[2]
  compound remaining in plasma: 80%
HepG2 cells [3]
  IC50: > 100000 nM
[4]
  compound remaining in plasma: 80%
thrombin
  inhibition of enzymatic activity: None of these inhibitors blocked the enzymatic activity
Cathepsin B
  inhibition of enzymatic activity: None of these inhibitors blocked the enzymatic activity
renin
  inhibition of enzymatic activity: None of these inhibitors blocked the enzymatic activity
[5]
  inhibition of enzymatic activity: None of these inhibitors blocked the enzymatic activity
In vivo; male, mouse, in vivo, po
  AUC(0-inf): 14.9 ± 7.85 µM·h
  AUC(0-t): 14.9 ± 7.79 µM·h
  Cmax: 8.93 ± 4.55 µM
  MRT inf: 1.25 ± 0.02 h
  MRT last: 1.22 ± 0.03 h
  Tmax: 0.33 ± 0.14 h
In vivo; male, mouse, oral
  half-life: 1.1 ± 0.3 h
In vivo; male, mouse, po
  half-life: 1.14 ± 0.32 h
In vivo; mice, per oral gavage (po.), n=4, mean ± SD
  CL/F: 4.02 ± 1.98 mg/ ( hr*µmol/L)/kg

## CNC(=O)[C@H]1C[C@H](n2c(-c3cncc4ccccc34)nc3cccc(C(=O)NC(C)C)c32)C1 [CDD-1842]
SARS-CoV-2 M^pro; [6]
  Mpro Ki: Inactive
SARS-CoV-2 M^pro; [7]
  Mpro-His Ki: Inactive
SARS-CoV-2 M^pro; [8]
  Ki: completely inactive

## CCC[C@H](NC(=O)c1cccc2nc(-c3cncc4ccccc34)n(C(C)C)c12)c1ccc(C(F)(F)F)cc1 [CDD-1804]
SARS-CoV-2 M^pro; [6]
  Mpro Ki: Inactive
SARS-CoV-2 M^pro; [7]
  Mpro-His Ki: Inactive
SARS-CoV-2 M^pro; [8]
  Ki: completely abolished; also recorded: greatly reduces potency

## CCC[C@H](NC(=O)c1cccc2nc(-c3cncc4ccccc34)n([C@H]3C[C@H](C(=O)NC)C3)c12)c1ccccc1 [CDD-1843]
SARS-CoV-2 M^pro
  Mpro Ki: Inactive
  Mpro-His Ki: Inactive

## CCC[C@H](NC(=O)c1cccc2nc(-c3cccnc3)n([C@H]3C[C@H](C(=O)NC)C3)c12)c1ccc(C(F)(F)F)cc1 [CDD-1831]
SARS-CoV-2 M^pro; [6]
  Mpro Ki: Inactive
SARS-CoV-2 M^pro; [7]
  Mpro-His Ki: Inactive
SARS-CoV-2 M^pro; [8]
  Ki: total loss of activity; also recorded: inactive or exhibit greatly decreased potency

## CNC(=O)CCCn1c(-c2ccc3cnccc3c2)nc2cccc(C(=O)N[C@@H](C)c3ccc4ccccc4c3)c21 [CDD-1884]
SARS-CoV-2 M^pro
  Ki: inactive or exhibit greatly decreased potency
  Mpro Ki: Inactive
  Mpro-His Ki: Inactive

## CNC(=O)CCCn1c(-c2ccnc3ccccc23)nc2cccc(C(=O)N[C@@H](C)c3ccc4ccccc4c3)c21 [CDD-1906]
SARS-CoV-2 M^pro
  Mpro Ki: Inactive
  Mpro-His Ki: Inactive

## CNC(=O)CCCn1c(-c2cccc3ccccc23)nc2cccc(C(=O)N[C@@H](C)c3ccc4ccccc4c3)c21 [CDD-1885]
SARS-CoV-2 M^pro
  Mpro Ki: Inactive
  Mpro-His Ki: Inactive

## CCC[C@H](NC(=O)c1cccc2nc(-c3cncc4ccccc34)n([C@H]3CC[C@H](C(=O)NC)C3)c12)c1ccc(C(F)(F)F)cc1 [CDD-1790]
SARS-CoV-2 M^pro; read-out: Ki
  Ki: 620 nM
SARS-CoV-2 M^pro; read-out: Mpro Ki
  Ki: 664 ± 66 nM

## CCC[C@H](NC(=O)c1cccc2nc(-c3cncc4ccccc34)n(C3CCNCC3)c12)c1ccc(C(F)(F)F)cc1 [CDD-1818]
SARS-CoV-2 M^pro; read-out: Ki
  Ki: 1470 nM
SARS-CoV-2 M^pro; read-out: Mpro Ki
  Ki: 1710 ± 128 nM

## CNC(=O)[C@H]1C[C@H](n2c(-c3cncc4ccccc34)nc3cccc(C(=O)N[C@@H](C)c4ccc(C(F)(F)F)cc4)c32)C1 [CDD-1829]
SARS-CoV-2 M^pro; [9]
  Ki: 48 ± 5 nM
SARS-CoV-2 M^pro; [10]
  Ki: 46 nM

## CNC(=O)CCCn1c(-c2cnccc2C)nc2cccc(C(=O)N[C@@H](C)c3ccc4ccccc4c3)c21 [CDD-1924]
SARS-CoV-2 M^pro; read-out: Mpro Ki
  Ki: 426 ± 47 nM

## CNC(=O)CCCn1c(-c2ccc(N)nc2)nc2cccc(C(=O)N[C@@H](C)c3ccc4ccccc4c3)c21 [CDD-1926]
SARS-CoV-2 M^pro
  Ki: inactive or exhibit greatly decreased potency
  Mpro Ki: Inactive
  Mpro-His Ki: Inactive

## CNC(=O)[C@H]1C[C@H](n2c(-c3cncc4ccccc34)nc3cccc(C(=O)N[C@@H](C)c4ccccc4)c32)C1 [CDD-1841]
SARS-CoV-2 M^pro; read-out: Ki
  Ki: 571 nM
SARS-CoV-2 M^pro; read-out: Mpro Ki
  Ki: 565 ± 55 nM

## CCC[C@H](NC(=O)c1cccc2nc(-c3cncc4ccccc34)n([C@H]3C[C@H](C(=O)NC)C3)c12)c1ccc(OC(F)F)cc1 [CDD-1780]
SARS-CoV-2 M^pro; [9]
  Ki: 16 ± 2 nM
SARS-CoV-2 M^pro; [10]
  Ki: 14 nM

## CCC[C@H](NC(=O)c1cccc2nc(-c3cncc4ccccc34)n([C@H]3C[C@H](C(=O)NC)C3)c12)c1cccc(C(F)(F)F)c1 [CDD-1795]
SARS-CoV-2 M^pro; [9]
  Ki: 35 ± 5 nM
SARS-CoV-2 M^pro; [10]
  Ki: 29 nM
SARS-CoV-2 M^pro
  decrease of activity compared to CDD-1733: approximately 2 fold

## CCC[C@H](NC(=O)c1cccc2nc(-c3cncc4ccccc34)n(CCCC(=O)NC)c12)c1ccc(C(F)(F)F)cc1 [CDD-1830]
SARS-CoV-2 M^pro; [9]
  Ki: 6 ± 1 nM
SARS-CoV-2 M^pro; 25 nM Mpro-6-His, standard error from triplicates, Inactive: less than 50% inhibition with 25 µM compound in initial screening, read-out: Mpro-His Ki
  Ki: 6 ± 1 nM
SARS-CoV-2 M^pro; [10]
  Ki: 6 nM

## CCC[C@H](NC(=O)c1cccc2nc(-c3cncc4ccccc34)n(C3CCC3)c12)c1ccc(C(F)(F)F)cc1 [CDD-1806]
SARS-CoV-2 M^pro; [8]
  Ki: greatly reduces potency
SARS-CoV-2 M^pro
  decrease of activity compared to CDD-1733: more than 14 fold
